Test results from US20260091015A1, “TREATING IRON DEFICIENCY WITH FERRIC CARBOXYMALTOSE” (PHARMACOSMOS HOLDING A/S, priority 2018, published 2026).

How the values were obtained:
[1] = test system: biochemical bone/muscle markers; assay: Biochemical bone/muscle markers (PINP, CTx, bone specific and total alkaline phosphatase), trials IDA-04/IDA-05; format: in vivo, human
Source text: The term “serum Bone Specific Alkaline Phosphatase” as used herein refers to the level of Bone specific Alkaline Phosphatase in blood serum as measured using the Beckman-Coulter Ostase assay which is a one-step immunoenzymatic chemiluminescence assay using a mouse monoclonal antibody specific to Bone Specific Alkaline Phosphatase (BAP).
The term “serum Alkaline Phosphatase” as used herein refers to the level of Alkaline Phosphatase in blood serum as measured enzymatically using a Roche Modular Analyzer. In the presence of magnesium and zinc ions, p-nitrophenyl phosphate is cleaved by phosphatase into phosphate and p-nitrophenol. The p-nitrophenol released is proportional to the Alkaline Phosphatase activity and is measured photometrically.
The term “serum N-terminal Propeptide of Type I Collagen (PINP)” as used herein refers to the level of PINP in blood serum as measured using a sandwich principle, electrochemiluminescence immunoassay (ECLIA) on a Cobas e601 Analyzer. During the first incubation, PINP in the sample and a biotinylated monoclonal PINP-specific antibody are incubated together. During the second incubation, streptavidin-coated labelled microparticles and a monoclonal PINP-specific antibody labelled with ruthenium complex (Trs (2,2-bipyridyl)ruthenium (II)-complex (Ru(bpy)23+)) are added to form a sandwich complex, which binds to the solid phase via interaction of biotin and streptavidin. The reaction mixture is aspirated into the measuring cell where the microparticles are magnetically captured onto the surface of the electrode. A voltage is applied to the electrode, which induces chemiluminescent emission, which is measured by a photomultiplier. Results are determined via a calibration curve, which is instrument-specifically generated by a 2-point calibration and a master curve provided via the reagent barcode.
The term “serum Carboxy-terminal Collagen Crosslinks (CTx)” as used herein refers to the level of CTx in blood serum as measured using a sandwich principle, electrochemiluminescence immunoassay (ECLIA) on a Cobas e601 Analyzer. During the first incubation, 50 μL of sample and biotinylated monoclonal anti-beta-CrossLaps antibodies are incubated together. During the second incubation, streptavidin-coated labelled microparticles and a monoclonal P-beta-CrossLaps-specific antibody labelled with ruthenium complex are added to form a sandwich complex, which binds to the solid phase via interaction of biotin and streptavidin. The reaction mixture is aspirated into the measuring cell where the microparticles are magnetically captured onto the surface of the electrode. Unbound substances are then removed with ProCell. A voltage is applied to the electrode, which induces chemiluminescent emission, which is measured by a photomultiplier. Results are determined via a calibration curve, which is instrument-specifically generated by a 2-point calibration and a master curve provided via the reagent barcode.
(§1) The trial was a randomized, open-label, comparative trial. Subjects with Iron Deficiency Anaemia (IDA) were randomized 1:1 to one treatment course of one of the following treatments: • Group A: iron isomaltoside 1000 (Monofer®, Pharmacosmos, Holbok, Denmark, termed iron isomaltoside in the following), 1000 mg at baseline • Group B: ferric carboxymaltose (Ferinject®/Injectafer®, Vifor Inc, Switzerland), 750 mg at baseline and day 7, cumulative dose: 1500 mg […]

[2] = Respiratory muscles strength (MIP and MEP), trials IDA-04/IDA-05; format: in vivo, human; conditions: relative to the comparator IV iron treatment
Protocol: as §1
The measurements of MIP and MEP provided a non-invasive clinical method for evaluating the strength of respiratory muscles, and it was the most widely used test to assess muscle pressures [ATS/ERS statement, 2002]. […] MIP and MEP were measured by MicroRPM (CareFusion Germany 234 GmbH, Hoechberg, Germany). […]

Alkaline Phosphatase ([1]; compared to IMM): statistically significant increase | Bone Specific Alkaline Phosphatase ([1]; compared to IMM): statistically significant increase | CTx values ([1]; compared to IMM): statistically significant lower | N-terminal PINP values ([1]; compared to IMM): statistically significant lower | bone turnover ([1]; treatment according to current practice): increased | respiratory muscle strength (maximal inspiratory and/or expiratory pressure) [2]: reduced
Substance: ferric carboxymaltose [FCM]
